Reference: patent US7928126B2, “Cyanopyridine derivative and use thereof as medicine” (Mitsubishi Tanabe Pharma Corporation, priority 2005, dated 2011)
Counter-ions that a name gives are not always drawn.

Experiments:
[1] = molecular target: T1, aurora 2 kinase (Homo sapiens, UniProt O14965); experiment: Aurora 2 kinase assay (32P-ATP, peptide substrate LRRASLG); type: biochemical; details: room temperature 60 min
T1 construct: The amplified gene encoding aurora 2 kinase was introduced into Escherichia coli expression vector pET32a; made in house; host or cells: Escherichia coli BL21R (Novagen), vector pET32a
T1 sequence (O14965 1-403): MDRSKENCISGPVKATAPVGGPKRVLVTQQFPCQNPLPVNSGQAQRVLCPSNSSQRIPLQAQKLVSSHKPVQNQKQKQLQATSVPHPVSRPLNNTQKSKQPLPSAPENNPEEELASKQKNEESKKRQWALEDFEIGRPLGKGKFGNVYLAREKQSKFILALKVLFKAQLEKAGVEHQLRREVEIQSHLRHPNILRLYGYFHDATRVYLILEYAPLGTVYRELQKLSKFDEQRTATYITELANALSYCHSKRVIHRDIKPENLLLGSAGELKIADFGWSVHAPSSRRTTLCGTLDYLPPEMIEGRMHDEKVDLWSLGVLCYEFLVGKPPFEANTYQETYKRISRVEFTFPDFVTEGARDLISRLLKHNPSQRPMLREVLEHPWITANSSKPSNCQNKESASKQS

[2] = molecular target: T2, aurora 1 kinase (Homo sapiens, UniProt Q96GD4); experiment: Aurora 1 kinase assay (32P-ATP, peptide substrate LRRWSLG); type: biochemical; details: room temperature 60 min
T2 construct: purchased UPSTATE
T2 sequence (Q96GD4 whole entry): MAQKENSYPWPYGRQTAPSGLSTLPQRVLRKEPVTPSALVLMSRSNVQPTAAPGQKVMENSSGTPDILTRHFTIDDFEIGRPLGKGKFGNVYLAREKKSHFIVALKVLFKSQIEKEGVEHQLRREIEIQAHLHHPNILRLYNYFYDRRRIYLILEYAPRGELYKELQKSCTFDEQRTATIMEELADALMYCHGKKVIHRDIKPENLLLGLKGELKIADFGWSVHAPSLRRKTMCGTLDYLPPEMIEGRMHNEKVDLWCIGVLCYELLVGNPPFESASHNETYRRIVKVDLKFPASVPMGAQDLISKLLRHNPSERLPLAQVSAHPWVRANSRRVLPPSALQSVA

[3] = molecular target: T3, Porcine brain tubulin protein (Sus scrofa, UniProt P02550+P02554); experiment: Tubulin polymerization assay (turbidity at 405 nm); type: biochemical; details: 10 μM compound, maximum polymerization rate, 37° C.; read-out: inhibitory rate (%)
T3 construct: 3.3 mg/ml Porcine brain tubulin protein: Cytoskeleton; purchased Cytoskeleton; host or cells: porcine brain (tissue-derived)
T3 sequence (P02550 whole entry): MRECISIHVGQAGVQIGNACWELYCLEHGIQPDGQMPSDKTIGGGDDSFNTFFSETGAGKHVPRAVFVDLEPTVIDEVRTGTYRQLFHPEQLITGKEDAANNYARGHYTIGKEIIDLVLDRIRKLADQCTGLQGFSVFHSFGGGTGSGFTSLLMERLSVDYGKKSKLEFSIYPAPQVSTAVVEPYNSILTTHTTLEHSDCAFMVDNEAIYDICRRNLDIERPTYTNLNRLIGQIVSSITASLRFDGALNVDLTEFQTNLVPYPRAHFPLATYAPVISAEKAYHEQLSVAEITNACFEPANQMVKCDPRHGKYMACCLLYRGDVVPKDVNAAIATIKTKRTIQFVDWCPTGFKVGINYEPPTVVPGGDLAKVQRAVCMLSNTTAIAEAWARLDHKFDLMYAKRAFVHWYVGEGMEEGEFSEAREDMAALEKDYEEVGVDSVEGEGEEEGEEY
T3 sequence (P02554 whole entry): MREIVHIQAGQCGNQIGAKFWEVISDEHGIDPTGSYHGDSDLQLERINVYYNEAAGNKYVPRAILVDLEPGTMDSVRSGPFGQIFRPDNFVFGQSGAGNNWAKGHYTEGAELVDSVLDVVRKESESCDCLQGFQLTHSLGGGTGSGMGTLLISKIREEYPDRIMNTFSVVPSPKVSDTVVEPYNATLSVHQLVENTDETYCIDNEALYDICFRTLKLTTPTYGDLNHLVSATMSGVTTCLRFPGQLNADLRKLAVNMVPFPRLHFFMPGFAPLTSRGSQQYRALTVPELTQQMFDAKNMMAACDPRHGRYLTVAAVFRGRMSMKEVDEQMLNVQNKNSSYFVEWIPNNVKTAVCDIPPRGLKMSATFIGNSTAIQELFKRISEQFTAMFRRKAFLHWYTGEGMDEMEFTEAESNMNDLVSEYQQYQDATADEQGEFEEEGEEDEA
Experimental: A tubulin polymerization reaction mixture (50 μL) (80 mM Pipes pH=6.9, 0.5 mM MgCl2, 1 mM EGTA, 1 mM GTP, 3.3 mg/ml Porcine brain tubulin protein: Cytoskeleton, 10 μM compound) was prepared in a 96 well flat bottom plate under ice-cooling. This was placed in a plate reader (IWAKI microplate reader, EZS-ABS) controlled to a temperature of 37° C., whereby a temperature dependent tubulin polymerization reaction was initiated. Since the turbidity of the reaction mixture increases as the tubulin polymerization proceeds, the absorbance at 405 nm was measured every other minute for 30 min to monitor the polymerization reaction. Of the 30 min measures, the three largest differences per min of turbidity (generally those immediately after start of the reaction) were taken, and the average of the three values was calculated and taken as the maximum polymerization rate. Inhibitory percent (%)=(C−T)/C×100 wherein T is the maximum polymerization rate of the reaction mixture containing the compound, and C is the maximum polymerization rate of the reaction mixture without the compound.

[4] = test system: human colon cancer cell line HCT-116; experiment: Cancer cell growth inhibition (WST-8), HCT-116; type: cell-based; details: HCT-116, 72 h, HCT116, 3 days, read-out: Cell proliferation suppressive activity value IC50
Experimental: (§1) Using RPMI1640 medium (manufactured by SIGMA) containing 10% fetal bovine serum, human prostate cancer cell line PC-3, human pancreatic cancer cell line PK-8, and human breast cancer cell line MDA-MB-453 were cultured at 37° C. under 5% CO2. Using DMEM/F-12 medium (manufactured by SIGMA) containing 10% fetal bovine serum, human colon cancer cell line HCT-116, human colon cancer cell line SW620, human ovarian cancer cell line SKOV-3, human prostate cancer cell line DU-145 and human pancreatic cancer cell line PANC-1 were cultured at 37° C. under 5% CO2. These cells were inoculated to a 96 well plate and cultured for one day. Thereto was added a compound diluted with a medium to a final concentration of 0.00064-20 μM (final DMSO concentration, 0.4%). After further cultivation for 3 days, WST-8 (0.16 mg/mL) was added to the culture medium and the culture medium was cultured for 2 hr. The absorbance at 650 nm was subtracted from the absorbance at 450 nm. The growth inhibitory activity was expressed by the decrease rate of the absorbance of compound addition group relative to the absorbance of compound non-addition group, and IC50 value was determined from the dose-reaction curve plotting the decrease rate of the absorbance, which was obtained by changing the concentration of the compound, and the concentration of the compound.

[5] = test system: human colon cancer cell line SW620; experiment: Cancer cell growth inhibition (WST-8), SW620; type: cell-based; details: SW-620, 72 h, SW620, 3 days, read-out: Cell proliferation suppressive activity value IC50
Experimental: as §1

[6] = test system: human prostate cancer cell line PC-3; experiment: Cancer cell growth inhibition (WST-8), PC-3; type: cell-based; details: 72 h, PC3, 3 days, read-out: Cell proliferation suppressive activity value IC50
Experimental: as §1

[7] = test system: human ovarian cancer cell line SKOV-3; experiment: Cancer cell growth inhibition (WST-8), SKOV-3; type: cell-based; details: SK-OV-3, 72 h, SKOV3, 3 days, read-out: Cell proliferation suppressive activity value IC50
Experimental: as §1

[8] = test system: human pancreatic cancer cell line PK-8; experiment: Cancer cell growth inhibition (WST-8), PK-8; type: cell-based; details: 72 h, PK8, 3 days, read-out: Cell proliferation suppressive activity value IC50
Experimental: as §1

[9] = test system: human prostate cancer cell line DU-145; experiment: Cancer cell growth inhibition (WST-8), DU-145; type: cell-based; details: DU-145, 72 h, DU145, 3 days, read-out: Cell proliferation suppressive activity value IC50
Experimental: as §1

[10] = test system: human breast cancer cell line MDA-MB-453; experiment: Cancer cell growth inhibition (WST-8), MDA-MB-453; type: cell-based; details: MDA-MB-453, 72 h, MDAMB-453, 3 days, read-out: Cell proliferation suppressive activity value IC50
Experimental: as §1

[11] = test system: human pancreatic cancer cell line PANC-1; experiment: Cancer cell growth inhibition (WST-8), PANC-1; type: cell-based; details: 72 h, PANC-1, 3 days, read-out: Cell proliferation suppressive activity value IC50
Experimental: as §1

[12] = test system: human cancer cell lines; experiment: Cancer cell growth inhibitory effect, whole cell line panel; type: cell-based; details: over the panel of cell lines
Experimental: as §1

| SMILES | Ki [1] [nM] | Ki [2] [nM] | inhibition at 10 µM [3] [%] | IC50 [4] [nM] | IC50 [5] [nM] | IC50 [6] [nM] | IC50 [7] [nM] | IC50 [8] [nM] | IC50 [9] [nM] | IC50 [10] [nM] | IC50 [11] [nM] | cancer cell growth inhibitory action (in words) [12] |
| --- | --- | --- | --- | --- | --- | --- | --- | --- | --- | --- | --- | --- |
| Cc1cc(Nc2cc(C)c(C#N)c(NCCOc3ccccc3)n2)n[nH]1 [Example 2, 2-(2-phenoxyethylamino)-6-(5-methyl-1H-pyrazol-3-ylamino)-4-methylnicotinonitrile] | 3 | ≤ 100 | 69 | 11 | 8 | 17 | 10 | 18 | 7 | 7 | 1290 | – |
| Cc1cc(Nc2ccc(C#N)c(NCCOc3cccnc3C)n2)n[nH]1 [Example 28, 2-(2-(2-methylpyridin-3-yloxy)ethylamino)-6-(5-methyl-1H-pyrazol-3-ylamino)nicotinonitrile dihydrochloride] | 4 | ≤ 100 | 69 | 3 | < 6.4 | < 6.4 | < 6.4 | < 6.4 | 19 | 4 | 6180 | – |
| Cc1cc(Nc2cc(C)c(C#N)c(NCCOc3cccnc3C)n2)n[nH]1 [Example 22, 2-(2-(2-methylpyridin-3-yloxy)ethylamino)-6-(5-methyl-1H-pyrazol-3-ylamino)-4-methylnicotinonitrile dihydrochloride] | 4 | – | 79 | 4 | < 6.4 | 15 | 4 | 7 | 8 | < 6.4 | < 6.4 | good cancer cell growth inhibitory action over a broad range |
| Cc1cc(Nc2cc(C)c(C#N)c(NCCOc3cccc(F)c3)n2)n[nH]1 [Example 9, 2-(2-(3-fluorophenoxy)ethylamino)-6-(5-methyl-1H-pyrazol-3-ylamino)-4-methylnicotinonitrile hydrochloride] | 1 | – | 86 | 17 | < 6.4 | < 6.4 | < 6.4 | 83 | 647 | < 6.4 | 1180 | – |
| Cc1ccc(OCCNc2nc(Nc3cc(C)[nH]n3)cc(C)c2C#N)c(C)n1 [Example 23, 2-(2-(2,6-dimethylpyridin-3-yloxy)ethylamino)-6-(5-methyl-1H-pyrazol-3-ylamino)-4-methylnicotinonitrile dihydrochloride] | 10 | – | 77 | 37 | 40 | 21 | 8 | 13 | 50 | 40 | 3 | good cancer cell growth inhibitory action over a broad range |

Second part, led by results:

| Ki [1] [nM] | Ki [2] [nM] | inhibition at 10 µM [3] [%] | IC50 [4] [nM] | IC50 [5] [nM] | IC50 [6] [nM] | IC50 [7] [nM] | IC50 [8] [nM] | IC50 [9] [nM] | IC50 [10] [nM] | IC50 [11] [nM] | SMILES | cancer cell growth inhibitory action (in words) [12] |
| --- | --- | --- | --- | --- | --- | --- | --- | --- | --- | --- | --- | --- |
| 2 | ≤ 100 | 44 | 2 | < 6.4 | 7 | 1 | 4 | 7 | 3 | 9 | Cc1cc(Nc2cc(C)c(C#N)c(NCCOc3cccnc3)n2)n[nH]1 [Example 12, 2-(2-(pyridin-3-yloxy)ethylamino)-6-(5-methyl-1H-pyrazol-3-ylamino)-4-methylnicotinonitrile dihydrochloride] | good cancer cell growth inhibitory action over a broad range |
| 2 | ≤ 100 | 63 | 7 | 5 | 4 | 3 | 8 | 13 | 12 | 14 | Cc1ccc(OCCNc2nc(Nc3cc(C)[nH]n3)cc(C)c2C#N)cn1 [Example 21, 2-(2-(6-methylpyridin-3-yloxy)ethylamino)-6-(5-methyl-1H-pyrazol-3-ylamino)-4-methylnicotinonitrile] | good cancer cell growth inhibitory action over a broad range |
